Marks after values point to notes of the source that are not given here.
Test system: Anopheles stephensi
Test: K & D module mosquito anti-biting (repellent) bioassay
Format: in vivo
Conditions: 25 nmol compound/cm^2 cloth; for Proportion Not Biting: Exp. 7, 56 replicates; for repellent activity (in words): Experiment 7
Description: Insects: Ae. aegypti(L.) (red eye Liverpool strain) and An. stephensi Liston used in the study were from colonies maintained at the Walter Reed Army Institute of Research, Silver Spring, Md. The insects were reared by feeding larvae ground tropical fish flakes (Tetramin Tropical Fish Flakes, Tetra Sales, Blacksburg, Va., www.tetra-fish.com)(Gerberg, E. j., et al., Manual for mosquito rearing and experimental techniques. Amer. Mosq. Control Assoc. Bull. No. 5 (revised), 1994, AMCA. inc., Lake Charles, La.). Adults were maintained in a photoperiod of 12:12 (L:D) h at 27° C. and 80% RH with cotton pads moistened with 10% aqueous sucrose solution. Mated females were 5-15 d old when they were used in bioassays. Ae. aegypti females had access only to water 24 h and neither food nor water for another 24 h before testing. An. stephensi females were provided with water alone 24 h before testing.
Mosquito Bioassay Methods: Experiment were conducted by using, a six-celled in vitro Klun & Debboun (K & D) module bioassay system developed by klun et al. (Klum J. A., et al., Journal of the American Mosquito Control Association. 21: 64-70 (2005)) for quantitative, evaluation of mosquito-repellent (anti-biting) properties of candidate repellent compounds for human use.
Plant extracts, fractions, or isolated pure plant derived compounds in 95% ethanol solution were each randomly applied to six-4×5 cm areas of organdy cloth and positioned over the membrane-covered blood. A replicate consisted of six treatments: four test chemicals or extract fractions, 95% ethanol treated cloth as control and unfractionated plant extract or a standard repellent compound, (1S, 2′S)-2-methylpiperidinyl-3-cyclohexen-1-carboxamide (SS220) at 25 nmol/cm^2 cloth. The 25 nmol SS220/cm^2 cloth dose was used as a standard, because it was known from human volunteer and in vitro assays to consistently suppress mosquito biting by 80% or more compared to controls in replicated assays (Klun, J. A., et al., Journal of the American Mosquito Control Association, 21: 64-70 (2005)). […] Routinely, a six-celled K & D module containing five mosquitoes/cell was positioned over cloth treatments covering the six blood-membrane wells, and trap doors of the K&D modules were opened to expose the treatments to the sets of mosquitoes. After a 3 minute exposure, the number of mosquitoes biting through cloth treatments in each cell was recorded and mosquitoes were prodded back into the cells. In Experiment 8, we retained all mosquitoes in their respective K&D module cells, each fitted with a water-moist piece of cotton, and observed the mosquitoes for total mosquito toxic knockdown at 6 min, 1 hr, and 24 hr post-treatment exposure. Experiments were replicated 12, 18, 32, or 56 times. Thus, 60, 90, 160. or 280 mosquitoes were tested against each treatment depending on the experiment, and the proportion of mosquitoes not biting for each treatment was calculated. For each experiment, conducted in different time periods, logistic regression was used to make two sets of one degree-of-freedom contrasts (t-tests): treatments vs. control and treatments vs. SS220 for anti-biting activity within each experiment. The level of significance was set at P=0.05. In all, we conducted 8 biological experiments, and all experiments used Ae. aegypti as the test mosquito with exception of Experiment 7 which used An. stephensi.
Experiments 6 and 7: These experiments compared the anti-biting activities of SS-220, and plant-isolated callicarpenal, humulene epoxide II, intermedeol and spathulenol at 25 nmol compound/cm^2 cloth versus control against Ae. aegypti and An. stephensi, respectively. Experiment 6 was replicated 32 times and 7 had 56 replicates

| SMILES | Proportion Not Biting | repellent activity (in words) |
| --- | --- | --- |
| CC1=CCC[C@@H]2[C@@](C)(CC=O)[C@H](C)CC[C@@]12C [callicarpenal, 13,14,15,16-tetranorclerod-3-en-12-al] | 0.75^c | as effective as SS220 |
| C=C(C)C1CCC2(C)CCCC(C)(O)C2C1 [intermedeol, (4S,5S,7R,10S)-eudesm-11-en-4-ol] | 0.72^c | as effective as SS220 |

From patent US20100190849A1, “Novel Clerodanes and Methods for Repelling Arthropods” (priority 2006, published 2010)
